This is an account of results in ChEMBL document CHEMBL3091369, “Synthesis and structure-activity relationships of new carbonyl guanidine derivatives as novel dual 5-HT2B and 5-HT7 receptor antagonists” (Bioorg Med Chem, 2013).

The structures appear in SMILES notation. Bounds are passed on as bounds.

In data set [1] the target is T1, 5-hydroxytryptamine receptor 2B (Homo sapiens, UniProt P41595). The data set can be described thus: Displacement of [3H]Mesulergine from human 5-HT2B receptor expressed in HEK293 cells by liquid scintillation counting analysis. It counts as cell-based. Background: Displacement assays read how much labelled ligand stays bound in the presence of the test substance.
T1 sequence (P41595 whole entry): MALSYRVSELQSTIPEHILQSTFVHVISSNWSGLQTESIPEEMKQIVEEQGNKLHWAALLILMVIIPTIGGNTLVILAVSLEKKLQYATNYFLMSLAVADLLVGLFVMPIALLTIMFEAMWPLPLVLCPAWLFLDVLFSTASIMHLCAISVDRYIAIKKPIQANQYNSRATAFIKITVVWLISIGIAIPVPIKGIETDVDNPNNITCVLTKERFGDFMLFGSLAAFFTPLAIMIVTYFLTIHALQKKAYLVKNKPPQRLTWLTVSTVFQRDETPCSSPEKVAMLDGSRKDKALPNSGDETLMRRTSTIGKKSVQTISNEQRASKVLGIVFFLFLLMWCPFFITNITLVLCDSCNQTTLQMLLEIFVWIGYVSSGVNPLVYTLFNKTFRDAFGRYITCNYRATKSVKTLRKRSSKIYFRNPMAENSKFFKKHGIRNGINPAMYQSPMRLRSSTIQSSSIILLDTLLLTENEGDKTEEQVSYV

The target in data set [2] is T2, 5-hydroxytryptamine receptor 7 (Homo sapiens, UniProt P34969). The data set can be described thus: Displacement of [3H]5-HT from human 5-HT7 receptor expressed in CHO cells by liquid scintillation counting analysis. It counts as cell-based.
T2 sequence (P34969 whole entry): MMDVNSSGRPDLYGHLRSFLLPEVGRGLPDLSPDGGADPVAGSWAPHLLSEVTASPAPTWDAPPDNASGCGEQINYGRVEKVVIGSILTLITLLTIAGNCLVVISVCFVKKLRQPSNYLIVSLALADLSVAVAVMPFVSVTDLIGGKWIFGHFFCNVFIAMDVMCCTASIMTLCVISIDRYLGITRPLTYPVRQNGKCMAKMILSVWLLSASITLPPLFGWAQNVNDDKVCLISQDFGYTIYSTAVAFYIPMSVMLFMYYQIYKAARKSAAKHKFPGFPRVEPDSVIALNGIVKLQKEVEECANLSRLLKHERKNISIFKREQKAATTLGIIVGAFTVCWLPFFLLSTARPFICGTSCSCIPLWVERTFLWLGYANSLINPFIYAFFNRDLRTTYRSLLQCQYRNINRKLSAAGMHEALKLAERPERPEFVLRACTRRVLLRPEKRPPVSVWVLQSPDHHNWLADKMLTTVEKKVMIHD
Data set [3] relates to Cavia porcellus. The data set can be described thus: Suppression of 5-HT induced dural FITC-labeled BSA extravasation in po dosed Hartley guinea pig pretreated for 30 mins followed by FITC-labeled BSA administration measured after 16 hrs by fluorescence assay. It counts as functional, organism-based.
For data set [4], the system named is Cavia porcellus. The data set is described as follows: Suppression of 5-HT induced dural FITC-labeled BSA extravasation in ip dosed Hartley guinea pig pretreated for 30 mins followed by FITC-labeled BSA administration measured after 16 hrs by fluorescence assay. It counts as functional, organism-based.
In data set [5] the target is T3, Muscarinic acetylcholine receptor M1 (Homo sapiens, UniProt P11229).
T3 sequence (P11229 whole entry): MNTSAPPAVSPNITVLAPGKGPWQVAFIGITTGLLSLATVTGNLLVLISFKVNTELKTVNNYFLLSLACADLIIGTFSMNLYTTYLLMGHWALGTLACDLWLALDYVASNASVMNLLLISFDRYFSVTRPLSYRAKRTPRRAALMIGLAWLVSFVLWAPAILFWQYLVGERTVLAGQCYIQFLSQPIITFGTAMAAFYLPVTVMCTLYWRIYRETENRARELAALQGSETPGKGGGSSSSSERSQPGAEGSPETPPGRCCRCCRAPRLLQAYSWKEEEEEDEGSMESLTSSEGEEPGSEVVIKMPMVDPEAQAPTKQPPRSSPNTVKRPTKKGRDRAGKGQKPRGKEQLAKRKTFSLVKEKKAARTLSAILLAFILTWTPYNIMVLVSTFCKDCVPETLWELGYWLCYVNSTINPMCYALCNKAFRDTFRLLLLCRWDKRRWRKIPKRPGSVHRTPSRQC
The data set is described as follows: Binding affinity to muscarinic M1 receptor (unknown origin).

A short description of data set [6]: Aqueous solubility of the compound in second liquid of Japanese pharmacopoeia at pH 6.8 after 20 hrs by liquid chromatographic analysis. It counts as physicochemical.
For data set [7], the system named is Cavia porcellus. The data set is described as follows: Suppression of 5-HT induced dural FITC-labeled BSA extravasation in Hartley guinea pig at 3 mg/kg, ip pretreated for 30 mins followed by FITC-labeled BSA administration measured after 16 hrs by fluorescence assay relative to control. It counts as functional. The following applies: route intraperitoneal.
Data set [8] concerns the target T4, Adrenergic receptor alpha-1 (Homo sapiens, UniProt P35348+P25100+P35368).
T4 sequence (P35348 whole entry): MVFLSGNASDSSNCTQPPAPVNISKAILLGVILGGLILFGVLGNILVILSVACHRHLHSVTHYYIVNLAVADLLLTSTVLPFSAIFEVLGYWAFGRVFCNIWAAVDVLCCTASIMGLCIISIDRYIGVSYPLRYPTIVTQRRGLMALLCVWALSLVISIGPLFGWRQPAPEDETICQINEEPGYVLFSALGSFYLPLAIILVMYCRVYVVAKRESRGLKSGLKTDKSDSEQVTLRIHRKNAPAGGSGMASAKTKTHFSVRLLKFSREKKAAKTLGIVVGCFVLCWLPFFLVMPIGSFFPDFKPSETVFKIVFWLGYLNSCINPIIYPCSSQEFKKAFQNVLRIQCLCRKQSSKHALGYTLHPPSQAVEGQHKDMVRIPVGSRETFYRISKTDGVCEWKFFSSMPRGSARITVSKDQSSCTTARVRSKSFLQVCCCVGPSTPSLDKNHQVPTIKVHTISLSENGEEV
T4 sequence (P25100 whole entry): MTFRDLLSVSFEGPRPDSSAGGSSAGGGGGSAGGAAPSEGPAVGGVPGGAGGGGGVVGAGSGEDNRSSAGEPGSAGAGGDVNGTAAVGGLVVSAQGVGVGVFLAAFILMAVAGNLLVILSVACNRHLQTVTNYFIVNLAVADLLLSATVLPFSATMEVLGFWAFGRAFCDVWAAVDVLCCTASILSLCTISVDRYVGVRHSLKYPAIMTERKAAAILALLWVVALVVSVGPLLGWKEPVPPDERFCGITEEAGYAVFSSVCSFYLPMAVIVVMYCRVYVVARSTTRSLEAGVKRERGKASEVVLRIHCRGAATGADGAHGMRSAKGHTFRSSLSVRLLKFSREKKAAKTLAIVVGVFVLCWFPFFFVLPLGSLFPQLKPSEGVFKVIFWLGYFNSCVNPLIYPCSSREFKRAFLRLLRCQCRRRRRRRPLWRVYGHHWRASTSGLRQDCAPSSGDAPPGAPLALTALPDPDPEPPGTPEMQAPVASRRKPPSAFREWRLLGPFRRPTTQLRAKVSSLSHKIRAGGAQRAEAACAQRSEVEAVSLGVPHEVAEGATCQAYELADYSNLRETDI
T4 sequence (P35368 whole entry): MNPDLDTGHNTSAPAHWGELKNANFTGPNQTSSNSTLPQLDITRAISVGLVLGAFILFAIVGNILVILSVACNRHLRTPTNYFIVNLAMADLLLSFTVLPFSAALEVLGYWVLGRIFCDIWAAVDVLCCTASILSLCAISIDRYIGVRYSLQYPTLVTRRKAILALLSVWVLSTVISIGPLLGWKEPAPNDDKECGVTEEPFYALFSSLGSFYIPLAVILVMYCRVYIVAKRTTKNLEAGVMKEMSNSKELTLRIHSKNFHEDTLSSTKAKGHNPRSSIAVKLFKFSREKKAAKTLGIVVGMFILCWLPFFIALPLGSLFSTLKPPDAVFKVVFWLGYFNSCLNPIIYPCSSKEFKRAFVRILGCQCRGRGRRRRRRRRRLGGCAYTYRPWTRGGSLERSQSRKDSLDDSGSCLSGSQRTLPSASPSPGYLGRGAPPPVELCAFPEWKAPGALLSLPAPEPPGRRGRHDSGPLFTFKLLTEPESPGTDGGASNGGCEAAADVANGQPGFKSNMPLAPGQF
The data set is described as follows: Binding affinity to adrenergic alpha1 receptor (unknown origin).

Data set [9] deals with 5-hydroxytryptamine receptor 2A (Homo sapiens, UniProt P28223). The data set is described as follows: Binding affinity to 5-HT2A receptor (unknown origin).
Chain of 5-hydroxytryptamine receptor 2A (P28223 whole entry): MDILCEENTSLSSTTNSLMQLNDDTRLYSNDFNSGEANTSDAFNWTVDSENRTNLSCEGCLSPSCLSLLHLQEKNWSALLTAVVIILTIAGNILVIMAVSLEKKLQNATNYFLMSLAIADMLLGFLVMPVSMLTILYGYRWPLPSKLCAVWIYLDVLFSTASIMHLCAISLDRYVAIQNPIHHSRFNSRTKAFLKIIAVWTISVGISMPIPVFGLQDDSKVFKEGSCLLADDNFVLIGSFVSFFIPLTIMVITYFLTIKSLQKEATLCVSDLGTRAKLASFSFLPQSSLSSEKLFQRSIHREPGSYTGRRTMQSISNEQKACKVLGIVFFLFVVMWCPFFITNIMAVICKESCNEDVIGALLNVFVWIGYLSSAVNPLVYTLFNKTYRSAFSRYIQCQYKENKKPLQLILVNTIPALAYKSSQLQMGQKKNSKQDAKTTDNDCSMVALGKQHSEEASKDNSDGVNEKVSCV
In a further data set the target is D(2) dopamine receptor (Homo sapiens, UniProt P14416). The data set can be described thus: Binding affinity to dopamine D2 receptor (unknown origin).
Chain of D(2) dopamine receptor (P14416 whole entry): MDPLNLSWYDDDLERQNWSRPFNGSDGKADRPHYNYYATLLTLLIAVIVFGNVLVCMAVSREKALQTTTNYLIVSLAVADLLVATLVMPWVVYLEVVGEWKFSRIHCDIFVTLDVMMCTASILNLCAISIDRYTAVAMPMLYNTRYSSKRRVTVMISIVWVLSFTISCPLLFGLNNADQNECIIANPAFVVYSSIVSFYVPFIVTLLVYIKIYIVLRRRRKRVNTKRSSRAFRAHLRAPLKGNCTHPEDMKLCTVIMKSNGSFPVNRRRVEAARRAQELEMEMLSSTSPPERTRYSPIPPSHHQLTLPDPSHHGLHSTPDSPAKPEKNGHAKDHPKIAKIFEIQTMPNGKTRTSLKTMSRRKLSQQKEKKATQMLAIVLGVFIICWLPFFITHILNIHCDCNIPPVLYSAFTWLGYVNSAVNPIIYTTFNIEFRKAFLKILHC
Data set [10] deals with T2, 5-hydroxytryptamine receptor 7. The data set is described as follows: Antagonist activity at human 5-HT7 receptor expressed in CHO cells assessed as inhibition of agonist-induced cAMP production at 10 uM incubated for 20 mins prior to substrate addition measured after 10 mins by EIA relative to control. It counts as functional, cell-based.
Data set [11] has as its target T1, 5-hydroxytryptamine receptor 2B. The data set is described as follows: Antagonist activity at human 5-HT2B receptor expressed in HEK293 cells coexpressing EBNA assessed as inhibition of 5-HT-induced IP metabolism incubated for 20 mins prior to substrate addition measured after 20 mins by liquid scintillation counting analysis. It counts as cell-based.
For data set [12], the target named is T5, 5-hydroxytryptamine receptor 2C (Homo sapiens, UniProt P28335).
T5 sequence (P28335 whole entry): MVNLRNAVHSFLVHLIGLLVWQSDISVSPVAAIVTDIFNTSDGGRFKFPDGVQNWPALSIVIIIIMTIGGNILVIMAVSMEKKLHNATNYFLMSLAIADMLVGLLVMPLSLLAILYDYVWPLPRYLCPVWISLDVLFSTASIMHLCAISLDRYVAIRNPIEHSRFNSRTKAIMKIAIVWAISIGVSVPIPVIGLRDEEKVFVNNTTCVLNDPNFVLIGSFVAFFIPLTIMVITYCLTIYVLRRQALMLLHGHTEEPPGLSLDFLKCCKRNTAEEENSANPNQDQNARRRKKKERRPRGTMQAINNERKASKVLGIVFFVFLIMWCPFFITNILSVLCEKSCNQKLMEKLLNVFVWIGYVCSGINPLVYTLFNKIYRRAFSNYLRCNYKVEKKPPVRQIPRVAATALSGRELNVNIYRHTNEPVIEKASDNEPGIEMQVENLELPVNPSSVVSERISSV
The data set is described as follows: Binding affinity to 5-HT2C receptor (unknown origin).

Broadly, the Ki is a dissociation constant, usually derived from enzyme kinetics or from competition with a known ligand. High values mean lower affinity, low ones higher affinity. `NC(N)=NC(=O)c1ccc2c(c1)oc1ccccc12`: the Ki in [1] was 2.1 nM; in [2], over 100 nM.
Consider `NC(N)=NC(=O)c1ccc2c(c1)-c1ccccc1C2O` (configuration not stated), for which the Ki in [1] is 86.8 nM; in data set [2], over 1000 nM.
For orientation: solubility means the dissolved amount per volume that the medium holds. Read a low solubility as little dissolved substance. The term IC50 denotes the midpoint of a concentration-inhibition curve. `Cl.NC(N)=NC(=O)c1ccc2c(c1)C(O)c1ccccc1-2` (configuration not stated): the Activity result in the data set with Cavia porcellus [3] was “Dose-dependent effect”; in the data set on Cavia porcellus [4], “Dose-dependent effect”; with Cavia porcellus [7], 93%. Also, the Ki (in data set [5]; in data set [8]; in data set [9]; on D(2) dopamine receptor; in data set [12]) was over 1000 nM in each case. Besides, in data set [6], the solubility at 20 h is under 10 µg/mL. For the same compound, in data set [10], the Imax was determined as 97%. In data set [11], the IC50 is 19.6 nM.
`CN1CCC(=C2c3ccccc3CCc3sccc32)CC1` [PIZOTYLINE]: the inhibition constant (Ki) in [5] worked out at 2 nM; in data set [1], 2 nM; in [8], 75 nM; in [9] it was 7.5 nM; in data set [2], 25 nM; on D(2) dopamine receptor, 2.4 nM. This compound also registered a Ki in data set [12] of 1.4 nM.
As for `NC(N)=NC(=O)c1cccc2c1Cc1ccccc1-2`, the values for the Ki in data set [1] and in data set [2] were 1.1 nM and 239 nM, respectively.
The like results for `NC(N)=NC(=O)c1ccc2c(c1)[nH]c1ccccc12` were, in that order, 10 nM and 42 nM.
`CC(C)c1cc(-c2ccc(F)c3ccccc23)nc(N)n1`: the Activity in the data set with Cavia porcellus [7] was 60%.
Take `NC(N)=NC(=O)c1ccc2c(c1)Cc1ccccc1-2`: the Ki in data set [5] was over 1000 nM; in data set [1], 1.8 nM; in data set [8], 790 nM; in data set [9], 1000 nM; in data set [2] it was 12.4 nM; at D(2) dopamine receptor, 1400 nM. The inhibition constant (Ki) in data set [12] worked out at 200 nM. Besides, the solubility at 20 h in data set [6] is under 1 µg/mL. Further, the Imax in [10] came out at 98%. In data set [11], the IC50 was 36.4 nM.
Take `NC(N)=NC(=O)/C=C/c1ccc2c(c1)C(O)c1ccccc1-2` (configuration not stated): the Ki in [1] was 52 nM; in [2], over 100 nM.
The like results for `NC(N)=NC(=O)c1ccc2c(c1)Nc1ccccc1O2` were, in that order, 3.6 nM and 144 nM.
With `NC(N)=NC(=O)c1ccc2c(c1)C(=O)c1ccccc1-2`, the Ki was determined as 0.4 nM in data set [1] and 185 nM in data set [2].
Turning to `NC(N)=NC(=O)c1cccc2c1-c1ccccc1C2`, the Ki was 27.4 nM in [1] and over 1000 nM in data set [2].
As to `NC(N)=NC(=O)c1ccc2c(c1)Oc1ccccc1N2`, the results for the Ki in data set [1] and in [2] were 2.4 nM and over 1000 nM, respectively.
